{
  "source": "patent US12319891B2",
  "about": "“Method for releasing aldehyde or ketone” (TAKASAGO INTERNATIONAL CORPORATION, priority 2017, dated 2025)",
  "key": {"[1]": {"biological_target": "T1, lipase preparation Lipex 100 L produced by Novozymes (Thermomyces lanuginosus, UniProt O59952, N255R/T253R)", "T1 construct": "purchased Novozymes Lipex 100 L", "T1 sequence (O59952 23-291 T253R/N255R)": "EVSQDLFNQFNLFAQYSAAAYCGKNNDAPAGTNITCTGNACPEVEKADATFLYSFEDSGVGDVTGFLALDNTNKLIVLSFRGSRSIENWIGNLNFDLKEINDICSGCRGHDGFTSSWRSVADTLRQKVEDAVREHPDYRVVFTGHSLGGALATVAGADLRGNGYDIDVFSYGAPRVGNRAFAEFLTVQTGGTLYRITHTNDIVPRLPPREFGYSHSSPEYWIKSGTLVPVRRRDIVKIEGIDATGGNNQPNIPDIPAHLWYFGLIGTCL", "experiment": "LIPASE-induced fragrance emission test (Lipex 100 L)", "assay_type": "biochemical", "details": "GC/MS head space peak area of released compound minus water control; 10 mg compound in 1 g aqueous 1% Lipex 100L; released: menthone (1-1), hexenal (1-2), citral (1-3)", "protocol": "(§1) 10 mg of each of the compounds of Examples 1-1 to 1-3 and 1 g of an aqueous 1% lipase preparation solution were charged in a vial bottle and mixed and after hermetically sealing the bottle, the mixture was subjected to GC/MS analysis of the head space component to obtain a peak area of the fragrance emitting compound. As a control, water was used in place of the aqueous 1% lipase preparation solution, and the peak area of the control was obtained by the same method.\n(§2) The fragrance emission amount was determined from the difference between the peak area of the obtained fragrance emitting compound and the peak area of the control. As the lipase preparation, Lipex 100 L produced by Novozymes, and AY “Amano” 30SD produced by Amano Enzyme Inc. were used.\n(§3) • Measuring apparatus: 7890GC/5975MSD (manufactured by Agilent Technologies) • Column: BC-WAX 50 m×0.25 mm I.D. • Temperature rise: 70° C.→220° C., 4° C./min • Split ratio: 60:1"}, "[2]": {"system": "Bacillus subtilis strain NBRC3134", "experiment": "Deodorizing component emission test by microorganism", "assay_type": "cell-based", "details": "GC/MS head space peak area minus control; 10 mg in 3 mL culture solution, 30° C. 20 hours; released: hexenal (2-2), citronellal (2-3)", "protocol": "(§4) Culture of Staphylococcus aureus strain NBRC12732, Staphylococcus epidermidis strain JCM2414T, Corynebacterium xerosis strain JCM1324, Pseudomonas aeruginosa strain NBRC13275, Bacillus subtilis strain NBRC3134, and Moraxella osloensis strain ATCC19976:\n(§5) After inoculating each of bacteria in Muller-Hinton liquid medium, shaking culture was performed at 30° C. for 20 hours. 3 mL of the resulting preculture solution was transferred to a vial bottle, and 10 mg of each of the compounds of Examples 2-2 to 2-6 was mixed, followed by hermetically sealing the bottle. Thereafter, shaking culture was further performed at 30° C. for 20 hours.\n(§6) A peak area of the deodorizing compound was obtained by performing GC/MS analysis of the head space component contained in the vial bottle having 3 mL of microorganism culture solution in which 10 mg of each of the compound of Examples 2-2 to 2-6 was mixed. A microorganism culture solution having not mixed therein each of the compounds of Examples 2-2 to 2-6 was used as the control, and a peak area of the control was obtained by the same method as above.\n(§7) The difference between the peak area of the deodorizing compound and the peak area of the control was calculated as the deodorizing component emission amount, and the results are shown in Tables 10 to 12.\n(§8) • Measuring apparatus: 7890GC/5975MSD (manufactured by Agilent Technologies) • Column: BC-WAX 50 m×0.25 mm I.D. • Temperature rise: 70° C.→220° C., 4° C./min • Split ratio: splitless"}, "[3]": {"system": "Corynebacterium xerosis strain JCM1324", "experiment": "Deodorizing component emission test by microorganism", "assay_type": "cell-based", "details": "GC/MS head space peak area minus control; 10 mg in 3 mL culture solution, 30° C. 20 hours; released: hexenal (2-2), citronellal (2-3)", "protocol": "as §4, §5, §6, §7, §8"}, "[4]": {"system": "Moraxella osloensis strain ATCC19976", "experiment": "Deodorizing component emission test by microorganism", "assay_type": "cell-based", "details": "GC/MS head space peak area minus control; 10 mg in 3 mL culture solution, 30° C. 20 hours; released: hexenal (2-2), citronellal (2-3)", "protocol": "as §4, §5, §6, §7, §8"}, "[5]": {"system": "Pseudomonas aeruginosa strain NBRC13275", "experiment": "Deodorizing component emission test by microorganism", "assay_type": "cell-based", "details": "GC/MS head space peak area minus control; 10 mg in 3 mL culture solution, 30° C. 20 hours; released: hexenal (2-2), citronellal (2-3)", "protocol": "as §4, §5, §6, §7, §8"}, "[6]": {"system": "Staphylococcus epidermidis strain JCM2414T", "experiment": "Deodorizing component emission test by microorganism", "assay_type": "cell-based", "details": "GC/MS head space peak area minus control; 10 mg in 3 mL culture solution, 30° C. 20 hours; released: hexenal (2-2), citronellal (2-3)", "protocol": "as §4, §5, §6, §7, §8"}, "[7]": {"system": "Propionibacterium acnes strain JCM6473", "experiment": "Deodorizing component emission test by microorganism", "assay_type": "cell-based", "details": "GC/MS head space peak area minus control; 10 mg in 3 mL culture solution, static culture 28° C. 3 days; released: hexenal (2-2), citronellal (2-3)", "protocol": "After inoculating bacteria in GAM bouillon liquid medium containing Hemin 0.5 ppm and Menadione 0.5 ppm, static culture was performed at 28° C. for 3 days under anaerobic conditions. 3 mL of the resulting preculture solution was transferred to a vial bottle, and 10 mg of each of the compounds of Examples 2-2 to 2-6 was mixed, followed by hermetically sealing the bottle. Thereafter, static culture was further performed at 28° C. for 3 days.\nas §6, §7, §8"}, "[8]": {"system": "lipase preparation AY \"Amano\" 30SD produced by Amano Enzyme Inc.", "experiment": "LIPASE-induced fragrance emission test (AY \"Amano\" 30SD)", "assay_type": "biochemical", "details": "GC/MS head space peak area of released citral minus water control; 10 mg compound in 1 g aqueous 1% AY \"Amano\" 30SD", "protocol": "as §1, §2, §3"}, "[9]": {"system": "Staphylococcus aureus strain NBRC12732", "experiment": "Deodorizing component emission test by microorganism", "assay_type": "cell-based", "details": "GC/MS head space peak area minus control; 10 mg compound in 3 mL culture solution, 30° C. 20 hours; released: citronellal (2-3), 2,6-dimethyl-5-heptenal (2-4), trimethylhexanal (2-5), octanal (2-6)", "protocol": "as §4, §5, §6, §7, §8"}, "[10]": {"system": "Malassezia furfur strain NBRC0656", "experiment": "Deodorizing component emission test by microorganism", "assay_type": "cell-based", "details": "GC/MS head space peak area of trimethylhexanal minus control; 10 mg in 3 mL culture solution, static culture 28° C. 3 days", "protocol": "After inoculating bacteria in Sabouraud liquid medium containing 0.1% Tween 80, static culture was performed at 28° C. for 3 days under anaerobic conditions. 3 mL of the resulting preculture solution was transferred to a vial bottle, and 10 mg of each of the compounds of Examples 2-2 to 2-6 was mixed, followed by hermetically sealing the bottle. Thereafter, static culture was further performed at 28° C. for 3 days.\nas §6, §7, §8"}},
  "data": [
    {"smiles": "CC(C)C1=C(OC(=O)c2ccccc2)C[C@H](C)CC1", "note": "[Example 1-1, 2-isopropyl-5-methyl-1-cyclohexenyl Benzoate]", "values": [
      {"measurement": "Fragrance emission amount", "setting": "[1]", "value": "76,407,359"}
    ]},
    {"smiles": "CCC=CC=COC(=O)c1ccccc1", "note": "[Example 1-2, 1,3-hexadienyl Benzoate]", "values": [
      {"measurement": "Fragrance emission amount", "setting": "[1]", "value": "12,076,381"},
      {"measurement": "Deodorizing component emission amount", "setting": "[2]", "value": "106,596,512"},
      {"measurement": "Deodorizing component emission amount", "setting": "[3]", "value": "15,168,728"},
      {"measurement": "Deodorizing component emission amount", "setting": "[4]", "value": "8,864,491"},
      {"measurement": "Deodorizing component emission amount", "setting": "[5]", "value": "10,638,380"},
      {"measurement": "Deodorizing component emission amount", "setting": "[6]", "value": "17,179,106"},
      {"measurement": "Deodorizing component emission amount", "setting": "[7]", "value": "3,265,759"}
    ]},
    {"smiles": "CC(C)=CCC=C(C)C=COC(=O)c1ccccc1", "note": "[Example 1-3, 3,7-dimethylocta-1,3,6-trienyl Benzoate]", "values": [
      {"measurement": "Fragrance emission amount", "setting": "[1]", "value": "5,098,870"},
      {"measurement": "Fragrance emission amount", "setting": "[8]", "value": "16,031,669"}
    ]},
    {"smiles": "CC(C)=CCCC(C)C=COC(=O)c1ccccc1", "note": "(stereo not drawn) [Example 2-3, 3,7-dimethylocta-1,6-dienyl Benzoate]", "values": [
      {"measurement": "Deodorizing component emission amount", "setting": "[2]", "value": "66,939,425"},
      {"measurement": "Deodorizing component emission amount", "setting": "[3]", "value": "692,091,257"},
      {"measurement": "Deodorizing component emission amount", "setting": "[4]", "value": "25,608,586"},
      {"measurement": "Deodorizing component emission amount", "setting": "[5]", "value": "42,891,551"},
      {"measurement": "Deodorizing component emission amount", "setting": "[9]", "value": "1,064,240,572"},
      {"measurement": "Deodorizing component emission amount", "setting": "[6]", "value": "76,886,509"},
      {"measurement": "Deodorizing component emission amount", "setting": "[7]", "value": "15,450,553"}
    ]},
    {"smiles": "CC(C)=CCCC(C)=COC(=O)c1ccccc1", "note": "[Example 2-4, 2,6-dimethylhepta-1,5-dienyl Benzoate]", "values": [
      {"measurement": "Deodorizing component emission amount", "setting": "[9]", "value": "132,554,000"}
    ]},
    {"smiles": "CC(C=COC(=O)c1ccccc1)CC(C)(C)C", "note": "(stereo not drawn) [Example 2-5, 3,5,5-trimethyl-1-hexenyl Benzoate]", "values": [
      {"measurement": "Deodorizing component emission amount", "setting": "[9]", "value": "189,916,125"},
      {"measurement": "Deodorizing component emission amount", "setting": "[10]", "value": "19,153,037"}
    ]},
    {"smiles": "CCCCCCC=COC(=O)c1ccccc1", "note": "[Example 2-6, 1-octenyl Benzoate]", "values": [
      {"measurement": "Deodorizing component emission amount", "setting": "[9]", "value": "129,928,279"}
    ]}
  ]
}
